The target of one series is bovine serum albumin (Bos taurus, UniProt P02769). Put plainly: Fluorescence enhancement in presence of bovine serum albumin and SDS in solution (FIG. 5). It is filed as physicochemical. The following applies: 10 mM Tris, pH 8.0, 200 μg/mL bovine serum albumin. On the procedure:
FIG. 5: Fluorescence enhancement of Compound 9 in the presence of bovine serum albumin and sodium dodecyl sulfate in solution. Dye in 10 mM Tris, pH 8.0, 200 μg/mL bovine serum albumin, 0.05% SDS was compared with dye in 10 mM Tris, pH 8.0, 200 μg/mL bovine serum albumin, dye in 10 mM Tris, pH 8.0, 0.05% SDS or simply dye in 10 mM Tris, pH 8.0. A 7-fold enhancement in fluorescence emission of the dye in the presence of protein alone was observed relative to the dye in buffer alone. A 40-fold enhancement of fluorescence emission of the dye in the presence of anionic detergent and protein was observed relative to dye in buffer alone.

Series [1] has as its system broad-range protein molecular weight markers. Nature of the series: Staining of broad-range molecular weight protein standards in SDS-polyacrylamide gels (Example 22, FIG. 2, 3). On the procedure: FIG. 2: Intensity profile comparison after staining broad-range protein molecular weight markers with SYPRO Orange dye in 7% acetic acid and phosohate-buffered saline. FIG. 2A.) Profile obtained with SYPRO Orange dye in 7% acetic acid. FIG. 2B.) Profile obtained with SYPRO Orange dye in 50 mM sodium phosphate, 150 mM sodium chloride, pH 7.0. Grey scale values of the fluorescence signals were inverted prior to obtaining the traces to facilitate evaluation of the peaks.
FIG. 3: Intensity profile comparison after staining broad-range protein molecular weight markers with Compound 9 in 7% acetic acid and phosphate-buffered saline. FIG. 3A.) Profile obtained with Compound 9 in 7% acetic acid. FIG. 3B.) Profile obtained with Compound 9 in 50 mM sodium phosphate, 150 mM sodium chloride, pH 7.0. Grey scale values of the fluorescence signals were inverted prior to obtaining the traces to facilitate evaluation of the peaks.
SDS-polyacrylamide gel electrophoresis is performed by standard methods utilizing 4% T, 2.6% C stacking gels, pH 6.8 and 15% T, 2.6% C separating gels, pH 8.8. % T is the total monomer concentration expressed in grams per 100 mL and % C is the percentage crosslinker. A staining solution of Compound 9 is prepared by diluting a stock solution that 5 is […] dye in DMSO in either 7.5% acetic acid or 50 mM Na2HPO4, 150 mM NaCl, pH 7.0 with vigorous mixing. Alternatively, a wide range of buffers are compatible with staining, including but not limited to formate, pH 4.0; citrate, pH 4.5; acetate, pH 5.0; MES, pH 6.0;
imidazole, pH 7.0; HEPES, pH 7.5; Tris acetate, pH 8.0; Tris-HCl, pH 8.5; Tris borate, 20 mM EDTA, pH 9.0; and bicarbonate, pH 10.0. Buffers should be prepared as 50-100 mM 10 solutions containing about 150 mM NaCl. Approximately 50-75 mL of staining solution is used for a typical mini-gel (5 cm×9 cm×1 mm). The gel is placed into the staining solution and the container is covered with aluminum foil to protect the dye from bright light. The gel is gently agitated for at least 30 minutes at room temperature using an orbital shaker (50:RPM). After staining, the gel is briefly dipped in water and visualized on a UV light box. […] As little as 1 ng of protein may be visualized when the fluorescent image is recorded by photography using a cellophane 490-nm long pass filter. […] In the latter buffer, protein bands are barely detectable above background fluorescence with these latter dyes.

In series [2] the test system is proteins. Put plainly: Dye staining and dye stability in 12.5% trichloroacetic acid. On the procedure: To make a staining mixture to combine with the sample mixture, including to test new dyes for their ability to stain proteins in a variety of situations, the selected dye is typically first dissolved in an organic solvent, such as DMSO, DMF or methanol, usually to a dye concentration of 1-10 mM. This concentrated stock solution is then generally diluted with an aqueous solution according to the assay being performed. Staining solutions can be stored and used for months without signal loss. The selected dye effectively stains proteins in a wide range of buffers if 100 mM NaCl is included in the staining solution. Acceptable buffers include, among others, 50-100 mM formate buffer, pH 4.0, sodium citrate, pH 4.5, sodium acetate, pH 5.0, MES, pH 6.0, imidazole, pH 7.0, HEPES, pH 7.5, Tris acetate, pH 8.0, Tris-HCl, pH 8.5, Tris borate, pH 9.0 and sodium bicarbonate, pH 10. Dye staining can also be performed in 12.5% trichloroacetic acid. […] A 20-minute wash in water removes the background and sensitive staining is obtained. […] Acetic acid may be included in the staining mixture, typically to a concentration of 5%-7.5% acetic acid, e.g. to improve labeling of gels relative to that obtained for dyes in water. For staining polypeptides in solution, the dye is diluted into an aqueous solution—preferably a buffered solution—that optionally contains a detergent. […]

The test system of series [3] is proteins. Put plainly: Staining of proteins separated in presence of alternative detergents. The following applies: alternative detergents instead of SDS.
For series [4], the system named is proteins. Nature of the series: Prestaining of proteins prior to electrophoresis (Example 31). The following applies: prestaining before electrophoresis. On the procedure:
The proteins of interest are diluted to appropriate concentrations in electrophoresis sample buffer. The samples are then heated to 90-95° C. for 4-5 minutes and allowed to cool to room temperature. Compound 9 is added to the protein solutions to a final concentration of 10 mM, and the samples are loaded onto a 12% polyacrylamide gel, or other appropriate percentage gel. The gel is electrophoresed under standard conditions and visualized directly using ultraviolet illumination. The sensitivity of this method is somewhat less than the sensitivity possible using the methods in Example 22 (post staining the gel after electrophoresis) or in Example 30 (dye in running buffer).

Consider one compound from patent US6579718B1, “Carbazolylvinyl dye protein stains” (Molecular Probes, Inc., priority 2000, dated 2003).

Chain of bovine serum albumin (P02769 25-607): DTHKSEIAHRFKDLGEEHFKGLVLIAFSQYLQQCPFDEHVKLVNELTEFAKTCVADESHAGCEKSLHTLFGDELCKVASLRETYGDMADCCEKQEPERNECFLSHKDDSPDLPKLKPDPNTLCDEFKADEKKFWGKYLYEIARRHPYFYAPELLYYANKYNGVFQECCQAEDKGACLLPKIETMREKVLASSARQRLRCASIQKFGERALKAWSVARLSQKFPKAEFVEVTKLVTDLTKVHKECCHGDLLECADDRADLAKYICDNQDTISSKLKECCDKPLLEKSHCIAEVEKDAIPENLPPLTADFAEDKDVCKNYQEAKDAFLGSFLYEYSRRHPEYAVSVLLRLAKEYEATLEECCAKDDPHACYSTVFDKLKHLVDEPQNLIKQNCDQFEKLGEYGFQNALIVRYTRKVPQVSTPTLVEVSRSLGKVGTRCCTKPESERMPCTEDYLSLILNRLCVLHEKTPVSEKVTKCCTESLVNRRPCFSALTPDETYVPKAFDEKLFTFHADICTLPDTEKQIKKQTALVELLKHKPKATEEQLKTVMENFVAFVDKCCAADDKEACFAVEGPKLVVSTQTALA

Consider `CCn1c2ccccc2c2cc(/C=C/c3cc[n+](CCCCS(=O)(=O)[O-])c4ccccc34)ccc21` [Compound 9], for which, on bovine serum albumin, the “Enhancement in fluorescence emission, protein alone relative to dye in buffer alone” value is 7 fold. Besides, on bovine serum albumin (0.05% SDS), the “Enhancement of fluorescence emission, anionic detergent and protein relative to dye in buffer alone” value is reported as 40 fold. The “Brightness of protein band staining” value in series [1] (7% acetic acid) is on record as “as brightly as SYPRO Orange dye”. Moreover, the “Amount of protein that may be visualized (detection sensitivity)” value in series [1] (SDS-polyacrylamide gel, photography with 490-nm long pass filter) was 1 ng. Further, the “Brightness of protein staining compared with SYPRO Orange dye” value in series [1] (phosphate-buffered saline) is “much more brightly”. Besides, in series [1] (regardless of the buffer), the “Appearance of stained proteins on UV light box” value was “bright orange bands”. Also, the “Staining of proteins in 12.5% trichloroacetic acid” value with proteins [2] was “stains proteins brightly, but also with bright background fluorescence”. The “Stability of dye on overnight exposure to 12.5% trichloroacetic acid” value in the series on proteins [2] (overnight) is “destroys much of the dye”. Besides, in the series on proteins [3], the “Staining of proteins separated in presence of Triton X-100 or N-benzyl-N,N-dimethylhexadecylammonium chloride” value is listed as “does not stain proteins”. In addition, the “Sensitivity compared with methods of Example 22 or Example 30” value in the series with proteins [4] was “somewhat less”.
